The values below come from ChEMBL document CHEMBL1136471, “Fluorescence resonance energy transfer in a novel cyclodextrin-peptide conjugate for detecting steroid molecules” (Bioorg Med Chem Lett, 2003).

Assay [1] is described as follows: Binding constant towards cyclodextrin conjugated peptide (with pyrene) at 25 degrees Centigrade.
The nature of assay [2]: Sensitivity value towards cyclodextrin conjugated peptide (with pyrene) at 25 degrees Centigrade. Also on record: concentration or dose not given beside the values.

For the compound `C[C@H](CCC(=O)O)[C@H]1CC[C@H]2[C@@H]3C[C@H](O)[C@@H]4C[C@H](O)CC[C@]4(C)[C@H]3CC[C@]12C`, in assay [1], the Activity is 210000 Kb M-1. The Change in sensitivity in assay [2] is 0.4.
The matching figures for `C[C@H](CCC(=O)O)[C@H]1CC[C@H]2[C@@H]3[C@H](O)C[C@@H]4C[C@H](O)CC[C@]4(C)[C@H]3CC[C@]12C`: 33300 Kb M-1 and 0.16.
The matching figures for `C[C@H](CCC(=O)O)[C@H]1CC[C@H]2[C@@H]3[C@@H](O)C[C@@H]4C[C@H](O)CC[C@]4(C)[C@H]3CC[C@]12C`: 173000 Kb M-1 and 0.4.
As for `C[C@H](CCC(=O)O)[C@H]1CC[C@H]2[C@@H]3[C@H](O)C[C@@H]4C[C@H](O)CC[C@]4(C)[C@H]3C[C@H](O)[C@]12C`, the Activity in assay [1] is 900 Kb M-1. In addition, the Change in sensitivity in assay [2] is 0.008.
The matching figures for `C[C@H](CCC(=O)O)[C@H]1CC[C@H]2[C@@H]3CC[C@@H]4C[C@H](O)CC[C@]4(C)[C@H]3CC[C@]12C`: 439000 Kb M-1 and 0.45.
For `C[C@H](CCC(=O)O)[C@H]1CC[C@H]2[C@@H]3CC[C@@H]4C[C@H](O)CCC4(C)[C@H]3C[C@H](O)[C@]12C` (single isomer, unassigned), the Activity in assay [1] is 1100 Kb M-1. The same compound yielded a Change in sensitivity in assay [2] of 0.01.
